Strand notation (5' to 3'): a small letter for the sugar, then the base; units joined by * are phosphorothioate-linked, units joined directly phosphodiester-linked; [ ] holds rarer units or linkages, { } end groups; capitals alone tell only the bases. e = 2'-O-(2-methoxyethyl) (MOE); [5mC] = 5-methylcytosine; d = 2'-deoxy (DNA)
Tests used:
[1] = tested on: human Factor 11 mRNA; assay: Dose-dependent antisense inhibition of human Factor 11 in HepG2 cells, lipofectin 9.375-150 nM (Example 2); assay type: cell-based; conditions: ~16 h
[2] = Tolerability in CD1 mice: liver function (Example 43); assay type: in vivo; set-up: Albumin: unit not given here; conditions: 50 mg/kg s.c. twice per week for 6 weeks, plasma
[3] = Tolerability in CD1 mice: hematology assays (Example 43); assay type: in vivo; conditions: 50 mg/kg s.c. twice per week for 6 weeks, blood
[4] = tested on: Factor 11 protein; assay: Factor 11 protein in monkey plasma by sandwich ELISA (Example 45); assay type: in vivo, cynomolgus monkeys; conditions: for Inhibition of Factor 11 protein relative to the PBS control: plasma ELISA
Protocol: Groups, each consisting of two male and three female monkeys, were injected subcutaneously with ISIS 416838, ISIS 416850, ISIS 416858, ISIS 416864, or ISIS 417002 in escalating doses. Antisense oligonucleotide was administered to the monkeys at 5 mg/kg three times per a week for week 1; 5 mg/kg twice per week for weeks 2 and 3; 10 mg/kg three times per week for week 4; 10 mg/kg twice per week for weeks 5 and 6; 25 mg/kg three times per week for week 7; and 25 mg/kg twice per week for weeks 8, 9, 10, 11, and 12. One control group, consisting of two male and three female monkeys, was injected subcutaneously with PBS according to the same dosing regimen. An additional experimental group, consisting of two male and three female monkeys, was injected subcutaneously with ISIS 416850 in a chronic, lower dose regimen. Antisense oligonucleotide was administered to the monkeys at 5 mg/kg three times per week for week 1; 5 mg/kg twice per week for week 2 and 3; 10 mg/kg three times per week for week 4; and 10 mg/kg twice per week for weeks 5 to 12. Body weights were measured weekly. Blood samples were collected 14 days and 5 days before the start of treatment and subsequently once per week for Factor 11 protein activity analysis in plasma, fibrinogen measurement, PT and aPTT measurements, bleeding times, and measurement of various hematologic factors. On day 85, the monkeys were euthanized by exsanguination while under deep anesthesia, and organs harvested for further analysis.
Plasma samples from all monkey groups taken on different days were analyzed by a sandwich-style ELISA assay (Affinity Biologicals Inc.) using an affinity-purified polyclonal anti-Factor 11 antibody as the capture antibody and a peroxidase-conjugated polyclonal anti-Factor 11 antibody as the detecting antibody. Monkey plasma was diluted 1:50 for the assay. Peroxidase activity was expressed by incubation with the substrate o-phenylenediamine. The color produced was quantified using a microplate reader at 490 nm and was considered to be proportional to the concentration of Factor 11 in the samples.
The results are presented in Table 115, expressed as percentage reduction relative to that of the PBS control.

Substance: 412206 (antisense e[5mC]*e[5mC]*eG*eT*eG*d[5mC]*dA*dT*d[5mC]*dT*dT*dT*d[5mC]*dT*dT*eG*eG*e[5mC]*eA*eT) [compound 412206]
- percent inhibition of Factor 11 at 9.375 nM [1]: 28%
- percent inhibition of Factor 11 at 18.75 nM [1]: 44%
- percent inhibition of Factor 11 at 37.5 nM [1]: 68%
- percent inhibition of Factor 11 at 75 nM [1]: 80%
- percent inhibition of Factor 11 at 150 nM [1]: 89%
- IC50 [1]: 22 nM

Substance: 412225 (antisense GCAGCGGACGGCATTGGTGC; 5-10-5 MOE gapmer, further chemistry not given here) [compound 412225]
- percent inhibition of Factor 11 at 9.375 nM [1]: 32%
- percent inhibition of Factor 11 at 18.75 nM [1]: 42%
- percent inhibition of Factor 11 at 37.5 nM [1]: 65%
- percent inhibition of Factor 11 at 75 nM [1]: 78%
- percent inhibition of Factor 11 at 150 nM [1]: 73%
- IC50 [1]: 23 nM

Substance: ISIS 449709: 3-8-3, 4-8-4, 2-10-2, 3-10-3 or 4-10-4 MOE microwalk gapmer (Table 46) (antisense eG*e[5mC]*eA*e[5mC]*dA*dG*dT*dT*dT*d[5mC]*dT*dG*dG*d[5mC]*eA*eG*eG*e[5mC])
- ALT [2]: 62 IU/L
- AST [2]: 83 IU/L
- Albumin [2]: 2.8
- Bilirubin [2]: 0.18 mg/dL
- Platelets [3]: 1447 nL⁻¹
- RBC [3]: 9.2 pL⁻¹
- WBC [3]: 5 nL⁻¹
- hematocrit [3]: 49%
- hemoglobin [3]: 13.2 g/dL
- lymphocytes [3]: 76%
- monocytes [3]: 4%
- neutrophils [3]: 19%

Substance: ISIS 449708: 3-8-3, 4-8-4, 2-10-2, 3-10-3 or 4-10-4 MOE microwalk gapmer (Table 46) (antisense eA*e[5mC]*eA*dG*dT*dT*dT*d[5mC]*dT*dG*dG*e[5mC]*eA*eG)
- ALT [2]: 66 IU/L
- AST [2]: 103 IU/L
- Albumin [2]: 2.8
- Bilirubin [2]: 0.17 mg/dL
- Platelets [3]: 1395 nL⁻¹
- RBC [3]: 9.2 pL⁻¹
- WBC [3]: 7 nL⁻¹
- hematocrit [3]: 48%
- hemoglobin [3]: 13.2 g/dL
- lymphocytes [3]: 77%
- monocytes [3]: 5%
- neutrophils [3]: 17%

Substance: ISIS 449707: 3-8-3, 4-8-4, 2-10-2, 3-10-3 or 4-10-4 MOE microwalk gapmer (Table 46) (antisense e[5mC]*eA*e[5mC]*eA*dG*dT*dT*dT*d[5mC]*dT*dG*dG*e[5mC]*eA*eG*eG)
- ALT [2]: 41 IU/L
- AST [2]: 62 IU/L
- Albumin [2]: 2.3
- Bilirubin [2]: 0.19 mg/dL
- Platelets [3]: 1386 nL⁻¹
- RBC [3]: 8.4 pL⁻¹
- WBC [3]: 6 nL⁻¹
- hematocrit [3]: 45%
- hemoglobin [3]: 12.4 g/dL
- lymphocytes [3]: 85%
- monocytes [3]: 3%
- neutrophils [3]: 11%

Substance: ISIS 449710: 3-8-3, 4-8-4, 2-10-2, 3-10-3 or 4-10-4 MOE microwalk gapmer (Table 46) (antisense e[5mC]*eA*e[5mC]*dA*dG*dT*dT*dT*d[5mC]*dT*dG*dG*d[5mC]*eA*eG*eG)
- ALT [2]: 43 IU/L
- AST [2]: 95 IU/L
- Albumin [2]: 2.8
- Bilirubin [2]: 0.18 mg/dL
- Platelets [3]: 1245 nL⁻¹
- RBC [3]: 9.1 pL⁻¹
- WBC [3]: 7 nL⁻¹
- hematocrit [3]: 48%
- hemoglobin [3]: 13.5 g/dL
- lymphocytes [3]: 81%
- monocytes [3]: 3%
- neutrophils [3]: 15%

Substance: ISIS 416850: MOE gapmer, nucleobases 1275 to 1318 of SEQ ID NO: 1 (Table 8) (antisense TGCACAGTTTCTGGCAGGCC; MOE gapmer, wing and gap sizes not given here)
- Factor 11 protein levels in plasma ([4]; cynomolgus monkeys, escalating dose regimen, ELISA): time-dependent decrease in protein levels
- Inhibition of Factor 11 protein relative to the PBS control ([4]; day 8, chronic, lower dose regimen (*)): 6%
- Inhibition of Factor 11 protein relative to the PBS control ([4]; day 8, escalating dose regimen): 8%
- Inhibition of Factor 11 protein relative to the PBS control ([4]; day 15, chronic, lower dose regimen (*)): 13%
- Inhibition of Factor 11 protein relative to the PBS control ([4]; day 15, escalating dose regimen): 4%
- Inhibition of Factor 11 protein relative to the PBS control ([4]; day 22, chronic, lower dose regimen (*)): 12%
- Inhibition of Factor 11 protein relative to the PBS control ([4]; day 22, escalating dose regimen): 11%
- Inhibition of Factor 11 protein relative to the PBS control ([4]; day 29, chronic, lower dose regimen (*)): 20%
- Inhibition of Factor 11 protein relative to the PBS control ([4]; day 29, escalating dose regimen): 15%
- Inhibition of Factor 11 protein relative to the PBS control ([4]; day 36, chronic, lower dose regimen (*)): 22%
- Inhibition of Factor 11 protein relative to the PBS control ([4]; day 36, escalating dose regimen): 17%
- Inhibition of Factor 11 protein relative to the PBS control ([4]; day 43, chronic, lower dose regimen (*)): 24%
- Inhibition of Factor 11 protein relative to the PBS control ([4]; day 43, escalating dose regimen): 23%
- Inhibition of Factor 11 protein relative to the PBS control ([4]; day 50, chronic, lower dose regimen (*)): 30%
- Inhibition of Factor 11 protein relative to the PBS control ([4]; day 50, escalating dose regimen): 42%
- Inhibition of Factor 11 protein relative to the PBS control ([4]; day 57, chronic, lower dose regimen (*)): 34%
- Inhibition of Factor 11 protein relative to the PBS control ([4]; day 57, escalating dose regimen): 49%
- Inhibition of Factor 11 protein relative to the PBS control ([4]; day 64, chronic, lower dose regimen (*)): 37%
- Inhibition of Factor 11 protein relative to the PBS control ([4]; day 64, escalating dose regimen): 55%
- Inhibition of Factor 11 protein relative to the PBS control ([4]; day 71, chronic, lower dose regimen (*)): 41%
- Inhibition of Factor 11 protein relative to the PBS control ([4]; day 71, escalating dose regimen): 57%
- Inhibition of Factor 11 protein relative to the PBS control ([4]; day 78, chronic, lower dose regimen (*)): 42%
- Inhibition of Factor 11 protein relative to the PBS control ([4]; day 78, escalating dose regimen): 63%
- Inhibition of Factor 11 protein relative to the PBS control ([4]; day 85, chronic, lower dose regimen (*)): 34%
- Inhibition of Factor 11 protein relative to the PBS control ([4]; day 85, escalating dose regimen): 64%
- Inhibition of Factor 11 protein relative to the PBS control ([4]; day −5, chronic, lower dose regimen (*)): 1%
- Inhibition of Factor 11 protein relative to the PBS control ([4]; day −5, escalating dose regimen): 0%
- Inhibition of Factor 11 protein relative to the PBS control ([4]; day −14, chronic, lower dose regimen (*)): 0%
- Inhibition of Factor 11 protein relative to the PBS control ([4]; day −14, escalating dose regimen): 0%

Substance: 413482 (antisense GGACGGCATTGGTGCACAGT; 5-10-5 MOE gapmer, further chemistry not given here) [compound 413482]
- percent inhibition of Factor 11 at 9.375 nM [1]: 26%
- percent inhibition of Factor 11 at 18.75 nM [1]: 39%
- percent inhibition of Factor 11 at 37.5 nM [1]: 59%
- percent inhibition of Factor 11 at 75 nM [1]: 74%
- percent inhibition of Factor 11 at 150 nM [1]: 82%
- IC50 [1]: 28 nM

Substance: 412223 (antisense ACAGTTTCTGGCAGGCCTCG; 5-10-5 MOE gapmer, further chemistry not given here) [compound 412223]
- percent inhibition of Factor 11 at 9.375 nM [1]: 33%
- percent inhibition of Factor 11 at 18.75 nM [1]: 48%
- percent inhibition of Factor 11 at 37.5 nM [1]: 62%
- percent inhibition of Factor 11 at 75 nM [1]: 76%
- percent inhibition of Factor 11 at 150 nM [1]: 81%
- IC50 [1]: 21 nM

Substance: 412224 (antisense GCATTGGTGCACAGTTTCTG; 5-10-5 MOE gapmer, further chemistry not given here) [compound 412224]
- percent inhibition of Factor 11 at 9.375 nM [1]: 24%
- percent inhibition of Factor 11 at 18.75 nM [1]: 45%
- percent inhibition of Factor 11 at 37.5 nM [1]: 57%
- percent inhibition of Factor 11 at 75 nM [1]: 70%
- percent inhibition of Factor 11 at 150 nM [1]: 81%
- IC50 [1]: 28 nM

From patent US20230263822A1, “MODULATION OF FACTOR 11 EXPRESSION” (Ionis Pharmaceuticals, Inc., priority 2008, published 2023)
